Test results as given in US20090203792A1, “METHODS OF TREATING NON-PAINFUL BLADDER DISORDERS USING ALPHA2DELTA SUBUNIT CALCIUM CHANNEL MODULATORS” (priority 2002, published 2009).
“Also recorded” adds a separate entry of the source.

Experiments:
[1] = tested on: rat bladder irritated by intravesical dilute acetic acid; assay: Dilute acetic acid model of bladder overactivity, filling cystometry; type: in vivo; settings: for bladder capacity normalized to pre-irritation saline control values (reversal of acetic acid-induced reduction) / bladder capacity during continuous intravesical dilute acetic acid infusion: rats; for bladder capacity normalized to pre-irritation saline control values (reversal of acetic acid-induced reduction): intravenous cumulative doses: gabapentin 30-300 mg/kg n=11, pregabalin 10-100 mg/kg n=7; for bladder capacity during continuous intravesical dilute acetic acid infusion: intravenous increasing doses (gabapentin 30-300 mg/kg, p=0.0031 by Friedman test; pregabalin 10-100 mg/kg)
Excerpt: Animal Preparation Female rats (250-275 g BW) were anesthetized with urethane (1.2 g/kg) and a saline-filled catheter (PE-50) was inserted into the jugular vein for intravenous drug administration. Via a midline lower abdominal incision, a flared-tipped PE 50 catheter was inserted into the bladder dome for bladder filling and pressure recording and secured by ligation. The abdominal cavity was moistened with saline and closed by covering with a thin plastic sheet in order to maintain access to the bladder for emptying purposes. Fine silver or stainless steel wire electrodes were inserted into the external urethral sphincter (EUS) percutaneously for electromyography (EMG).
Experimental Design: Saline was continuously infused at a rate of 0.055 ml/min via the bladder filling catheter for 60 minutes to obtain a baseline of lower urinary tract activity (continuous cystometry; CMG). Following the control period, a 0.25% acetic acid solution in saline was infused into the bladder at the same flow rate to induce bladder irritation. Following 30 minutes of AA infusion, 3 vehicle injections were made at 20 minute intervals to determine vehicle effects, if any. Increasing doses of a selected active agent, gabapentin (30, 100 and 300 mg/kg; n=11) or pregabalin (10, 30 and 100 mg/kg; n=7), at half log increments were administered intravenously at 30 minute intervals in order to construct a cumulative dose-response relationship. At the end of the control saline cystometry period, at the third vehicle, and 20 minutes following each subsequent treatment, the infusion pump was stopped, the bladder was emptied via the infusion catheter and a single filling cystometrogram was performed at the same flow rate in order to determine changes in bladder capacity caused by the irritation protocol and subsequent […] drug administration. Body temperature was maintained at 37 C with a heating pad.
Bladder capacity was estimated by single filling cystometry. Data were analyzed by non-parametric ANOVA for repeated measures (Friedman Test) for cumulative dose-response studies and Dunn's Multiple Comparison post-test. In some cases, comparisons were made from the last vehicle measurement (AA/Veh 3). P<0.050 was considered significant.

[2] = tested on: α2δ subunit of calcium channels; settings: Bryans et al. (1999) Med. Res. Rev. 19: 149-177; cited from earlier work
[3] = tested on: calcium currents of bladder afferent (DRG) neurons; assay: Bladder sensory neuron calcium current model (whole cell patch-clamp); type: cell-based, rat
Excerpt: Labeling of bladder afferent neurons: Adult female Sprague-Dawley rats (150-300 g) were deeply anesthetized with isoflurane. A ventral midline incision was made through the abdominal skin and musculature, exposing the urinary bladder. Five injections of the fluorescent dye Fast Blue (4%) were made into the bladder smooth muscle wall to label primary afferent fibers innervating the bladder. The area was rinsed with sterile saline to eliminate nonspecific spread of dye, and the incision was closed. Rats recovered for 12-14 days to allow for transport of Fast Blue from distal terminals to the cell somata of dorsal root ganglion (DRG) neurons. Labeled neurons were identified in vitro using fluorescence optics. […]
Neurons were incubated in culture medium containing the FITC-labeled lectin BSI-B4 (IB4, […]) at 37° C. for 5 min before recording. The coverslip was washed with extracellular recording solution for 1 min before being placed in a recording chamber mounted on the stage of an inverted microscope equipped with fluorescence optics. […]
Calcium currents were recorded from DRG neurons using standard electrophysiologic protocols. […] Currents were recorded using a patch-clamp amplifier and digitized at 3-10 kHz for acquisition. […] Baseline responses were recorded until a steady-state peak amplitude was obtained, and to ensure that the kinetics of the response were stable. […]

[4] = tested on: rat bladder irritated by intravesical protamine sulfate/KCl; assay: Urothelial permeation/physiological potassium model (protamine sulfate/KCl bladder irritation), filling cystometry; type: in vivo
Excerpt: Female rats (250-275 g BW) are anesthetized with urethane (1.2 g/kg) and a saline-filled jugular catheter (PE-50) is inserted for intravenous drug administration. Via a midline abdominal incision, a PE 50 catheter is inserted into the bladder dome for bladder filling and pressure recording. The abdominal cavity is moistened with saline and closed by covering with a thin plastic sheet in order to maintain access to the bladder for filling cystometry emptying purposes. Fine silver or stainless steel wire electrodes are inserted into the external urethral sphincter (EUS) percutaneously for electromyography (EMG).
Saline and all subsequent infusates are continuously infused at a rate of 0.055 ml/min via the bladder filling catheter for 30-60 minutes to obtain a baseline of lower urinary tract activity (continuous cystometry; CMG). Bladder pressure traces act as direct measures of bladder and urethral outlet activity, and EUS-EMG phasic firing and voiding act as indirect measures of lower urinary tract activity during continuous transvesical cystometry. […] Once a stable level of lower urinary tract hyperactivity is established (20-30 minutes), vehicle followed by increasing doses of a selected active agent are administered intravenously in order to construct a cumulative dose-response relationship and their effects on LUT function are monitored for 20 minutes. […]

Structure (SMILES)	bladder capacity normalized to pre-irritation saline control values (reversal of acetic acid-induced reduction) [1]	bladder capacity during continuous intravesical dilute acetic acid infusion [1]	binding affinity for the α2δ subunit of calcium channels compared with gabapentin [2]	block of currents recorded from bladder afferent neurons ([3]; 0.1 mM, data not shown)	bladder capacity response compared with last vehicle measurement (AA/Veh 3) ([1]; rats n=5, 300 mg/kg intravenous, p<0.05 by Dunn's multiple comparison test)	peak calcium current during drug application, relative to control ([3]; 30 μM bath application, six bladder afferent neurons, step from −80 mV to 0 mV, mean±SEM)	bladder capacity during continuous bladder irritation (protamine sulfate/KCl) ([4]; rats n=6, 30, 100 and 300 mg/kg intravenously, sequential at 30 minute intervals, p=0.0108 by Friedman test)	drug-induced changes in blood pressure ([4]; rats, intravenous, any dose examined)
CC(C)C[C@H](CN)CC(=O)O [Pregabalin, (S)-(3-aminomethyl)-5-methylhexanoic acid]	42%	demonstrate efficacy	even higher binding affinity	–	–	–	–	–
[Cl][Cd][Cl] [CdCl2]	–	–	–	completely blocked	–	–	–	–
NCC1(CC(=O)O)CCCCC1 [gabapentin, 1-(aminomethyl)cyclohexaneacetic acid]	~50%	partially reversing the reduction in bladder capacity caused by acetic acid in a dose-dependent fashion; also recorded: dose-dependent increase in bladder capacity; also recorded: demonstrate efficacy	–	–	significantly higher than AA/Veh 3	85+1%	reversed the irritation effect (decreased bladder capacity) in a dose-dependent fashion; also recorded: dose-dependent increase in bladder capacity	No drug-induced changes in blood pressure
